Consider 25 compounds from ChEMBL document CHEMBL5131501, “Discovery and evaluation of chalcone derivatives as novel potential anti-Toxoplasma gondii agents” (Eur J Med Chem, 2022).

The source made the active and inactive calls. The calls are words filed in the database; no cut-off is given here.

One experiment has as its system Toxoplasma gondii. Kind of experiment: Anti-tachyzoite activity against Toxoplasma gondii RH infected in Kunming mouse model assessed as inhibition of growth rate in peritoneal fluid at 100 mg/kg, ip administered daily for 4 days after 4 hrs post infection. In kind it is functional. Also on record: scale not given: the % may be the effect or the level left. As to conditions: time 4 day.
Regarding `CO[C@@H]1[C@@H](O[C@@H]2O[C@H](C)[C@@H](O[C@H]3C[C@@](C)(O)[C@@H](O)[C@H](C)O3)[C@H](N(C)C)[C@H]2O)[C@@H](CC=O)C[C@@H](C)[C@@H](O[C@H]2CC[C@H](N(C)C)[C@@H](C)O2)/C=C/C=C/C[C@@H](C)OC(=O)C[C@H]1OC(C)=O`, the Activity is 74.6%.

A further experiment deals with Toxoplasma gondii. Kind of experiment: Anti-tachyzoite activity against Toxoplasma gondii RH infected in kunming mouse model assessed as decrease in serum AST level at 100 mg/kg, ip administered daily for 4 days after 4 hrs post infection. The experiment is classed as functional, organism-based. As to conditions: time 4.0 day.
For the compound `CO[C@@H]1[C@@H](O[C@@H]2O[C@H](C)[C@@H](O[C@H]3C[C@@](C)(O)[C@@H](O)[C@H](C)O3)[C@H](N(C)C)[C@H]2O)[C@@H](CC=O)C[C@@H](C)[C@@H](O[C@H]2CC[C@H](N(C)C)[C@@H](C)O2)/C=C/C=C/C[C@@H](C)OC(=O)C[C@H]1OC(C)=O`, the outcome was Active.

A further experiment relates to Toxoplasma gondii. Put plainly: Anti-tachyzoite activity against Toxoplasma gondii RH infected in human HFF cells assessed as mortality rate at 50 uM incubated for 2 hrs by trypan blue staining based light microscopic analysis. The experiment is classed as functional, organism-based.
Settings: not given
On to `COc1ccc(C(=O)/C=C/c2ccccc2Cl)cc1`, for which the outcome was Active.

Turning to `COc1cccc(/C=C/C(=O)c2ccc(NC(C)=O)cc2)c1OC`, the result was Active.

Regarding `Nc1ccc(C(=O)CCc2ccc(Cl)c(Cl)c2)cc1`, the result was Active.

In the case of `COc1ccc(C(=O)/C=C/c2ccc(O)cc2)cc1OC`, the result was Active.

On to `O=C(/C=C/c1ccc(Cl)c(Cl)c1)c1cc(F)cc(F)c1`, for which the result was Active.

In the case of `COc1ccc(C(=O)/C=C/c2ccc(O)cc2)cc1`, the outcome was Active.

Regarding `CCNc1cccc(C(=O)/C=C/c2cccc(OC)c2OC)c1`, the result was Active.

Take `O=C(/C=C/c1ccccc1Br)c1cc(F)cc(F)c1`: the outcome was Active.

For `COc1ccc(C(=O)/C=C/c2ccccc2Cl)cc1O`, the outcome was Active.

As to `COc1cccc(/C=C/C(=O)c2cccc(NC(C)=O)c2)c1OC`, the result was Active.

Turning to `CC(=O)Nc1ccc(C(=O)/C=C/c2ccc(Cl)c(Cl)c2)cc1`, the result was Active.

`COc1cccc(/C=C/C(=O)c2cccc(NC(C)C)c2)c1OC`: the result was Active.

For `COc1ccc(C(=O)/C=C/c2ccccc2OC)cc1O`, the result was Active.

`O=C(/C=C/c1ccccc1Cl)c1cc(F)cc(F)c1`: the outcome was Active.

With `Nc1ccc(C(=O)CCc2ccccc2Br)cc1`, the result was Active.

For `CCNc1ccc(C(=O)/C=C/c2ccccc2Br)cc1`, the outcome was Active.

In the case of `CC(C)Nc1ccc(C(=O)/C=C/c2ccc(Cl)c(Cl)c2)cc1`, the outcome was Active.

In the case of `COc1cccc(/C=C/C(=O)c2ccc(NC(C)C)cc2)c1OC`, the outcome was Active.

On to `COc1cccc(CCC(=O)c2cccc(N)c2)c1OC`, for which the outcome was Active.

As for `COc1cccc(CCC(=O)c2ccc(N)cc2)c1OC`, the outcome was Active.

As to `CC(C)Nc1ccc(C(=O)/C=C/c2ccccc2Br)cc1`, the result was Active.

Take `CC(=O)Nc1ccc(C(=O)/C=C/c2ccccc2Br)cc1`: the outcome was Active.

Take `CCNc1ccc(C(=O)/C=C/c2ccc(Cl)c(Cl)c2)cc1`: the outcome was Active.

For `CCNc1ccc(C(=O)/C=C/c2cccc(OC)c2OC)cc1`, the outcome was Active.

For a further experiment, the system named is Toxoplasma gondii. Kind of experiment: Anti-tachyzoite activity against Toxoplasma gondii RH infected in kunming mouse model assessed as decrease in serum ALT level at 100 mg/kg, ip administered daily for 4 days after 4 hrs post infection. The experiment is classed as functional, organism-based. As to conditions: time 4.0 day.
Consider `CO[C@@H]1[C@@H](O[C@@H]2O[C@H](C)[C@@H](O[C@H]3C[C@@](C)(O)[C@@H](O)[C@H](C)O3)[C@H](N(C)C)[C@H]2O)[C@@H](CC=O)C[C@@H](C)[C@@H](O[C@H]2CC[C@H](N(C)C)[C@@H](C)O2)/C=C/C=C/C[C@@H](C)OC(=O)C[C@H]1OC(C)=O`, for which the result was Active.

In the next experiment the test system is Toxoplasma gondii. Put plainly: Anti-tachyzoite activity against Toxoplasma gondii RH infected in kunming mouse model assessed as decrease in malondialdehyde lipid peroxidation in liver at 100 mg/kg, ip administered daily for 4 days after 4 hrs post infection. The experiment is classed as functional, organism-based. Conditions: time 4.0 day.
In the case of `CO[C@@H]1[C@@H](O[C@@H]2O[C@H](C)[C@@H](O[C@H]3C[C@@](C)(O)[C@@H](O)[C@H](C)O3)[C@H](N(C)C)[C@H]2O)[C@@H](CC=O)C[C@@H](C)[C@@H](O[C@H]2CC[C@H](N(C)C)[C@@H](C)O2)/C=C/C=C/C[C@@H](C)OC(=O)C[C@H]1OC(C)=O`, the outcome was Active.
